Experimental data taken from PubChem BioAssay AID220 (DTP/NCI, 2004).
Where “and” joins values, the source holds several entries; their conditions need not be identical. Identical values can stand only once. Inconclusive results are not listed.

System: CD8F1 mice, subcutaneous mammary adenocarcinoma, T/C%
Assay: NCI In Vivo Anticancer Drug Screen. Data for tumor model Mammary Adenocarcinoma CD8F1 (subcutaneous) in CD8F1
Settings: higher = larger tumour
Procedure, shortened: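 Antitumor activity is assessed in transplantable-tumor mice by comparing the treated group with a vehicle-treated control group. Survival or tumor size serves as the measure, reported as T divided by C.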

[1] = endpoint: median tumor weight (est.), dose: 3.12 mg/kg/injection, schedule: Q07DX005 (ip), vehicle: saline
[2] = endpoint: median tumor weight (est.), dose: 6.25 mg/kg/injection, schedule: Q07DX005 (ip), vehicle: saline
[3] = endpoint: median tumor weight (est.), dose: 12.5 mg/kg/injection, schedule: Q07DX005 (ip), vehicle: saline
[4] = endpoint: median tumor weight (est.), dose: 25.0 mg/kg/injection, schedule: Q07DX005 (ip), vehicle: saline
[5] = endpoint: median tumor weight (est.), dose: 50.0 mg/kg/injection, schedule: Q07DX005 (ip), vehicle: saline
[6] = endpoint: median tumor weight (est.), dose: 12.5 mg/kg/injection, schedule: Q07DX005 (ip), vehicle: suspension in saline
[7] = endpoint: median tumor weight (est.), dose: 25.0 mg/kg/injection, schedule: Q07DX005 (ip), vehicle: suspension in saline
[8] = endpoint: median tumor weight (est.), dose: 50.0 mg/kg/injection, schedule: Q07DX005 (ip), vehicle: suspension in saline
[9] = endpoint: median tumor weight (est.), dose: 100.0 mg/kg/injection, schedule: Q07DX005 (ip), vehicle: saline
[10] = endpoint: median tumor weight (est.), dose: 100.0 mg/kg/injection, schedule: Q07DX005 (ip), vehicle: suspension in saline
[11] = endpoint: median tumor weight (est.), dose: 25.0 mg/kg/injection, schedule: Q07DX005 (ip), vehicle: Klucel (hydroxypropylcellulose) (HPC)
[12] = endpoint: median tumor weight (est.), dose: 50.0 mg/kg/injection, schedule: Q07DX005 (ip), vehicle: Klucel (hydroxypropylcellulose) (HPC)
[13] = endpoint: median tumor weight (est.), dose: 100.0 mg/kg/injection, schedule: Q07DX005 (ip), vehicle: Klucel (hydroxypropylcellulose) (HPC)
[14] = endpoint: median tumor weight (est.), dose: 200.0 mg/kg/injection, schedule: Q07DX005 (ip), vehicle: Klucel (hydroxypropylcellulose) (HPC)
[15] = endpoint: median tumor weight change, dose: 125.0 mg/kg/injection, schedule: Q01DX001 (ip), vehicle: Klucel (hydroxypropylcellulose) (HPC)
[16] = endpoint: median tumor weight change, dose: 250.0 mg/kg/injection, schedule: Q01DX001 (ip), vehicle: Klucel (hydroxypropylcellulose) (HPC)
[17] = endpoint: median tumor weight change, dose: 500.0 mg/kg/injection, schedule: Q01DX001 (ip), vehicle: Klucel (hydroxypropylcellulose) (HPC)
[18] = endpoint: median tumor weight (est.), dose: 12.5 mg/kg/injection, schedule: Q07DX005 (ip), vehicle: Klucel (hydroxypropylcellulose) (HPC)

With `OCCOCCN1CCN(CCCN2c3ccccc3Sc3ccc(C(F)(F)F)cc32)CC1` the T/C [1] was 53 % of control, the T/C [2] was 97 % of control and the T/C [3] was 95 % of control. For the same molecule, the T/C [4] was 71 % of control and the T/C [5] was 97 % of control.

`Nc1nc(/C=C(/O)c2ccccc2)c2ncn(C3OC(CO)C(O)C3O)c2n1` (configuration not stated) was tested, and the T/C (endpoint: median tumor weight change, dose: 50.0 mg/kg/injection, schedule: Q01DX001 (ip), vehicle: distilled water + Tween-80) was 91 % of control.

For `COC(=O)Nc1nc2ccc(C3(c4ccc(F)cc4)OCCO3)cc2[nH]1`, the T/C (endpoint: median tumor weight change, dose: 125.0 mg/kg/injection, schedule: Q01DX001 (ip), vehicle: saline) was 99 % of control, the T/C (endpoint: median tumor weight change, dose: 125.0 mg/kg/injection, schedule: Q01DX001 (ip), vehicle: suspension in saline) was 152 % of control and the T/C (endpoint: median tumor weight change, dose: 250.0 mg/kg/injection, schedule: Q01DX001 (ip), vehicle: suspension in saline) was 67 % of control. The T/C (endpoint: median tumor weight change, dose: 500.0 mg/kg/injection, schedule: Q01DX001 (ip), vehicle: suspension in saline) was 153 % of control and the T/C (endpoint: median tumor weight change, dose: 1000.0 mg/kg/injection, schedule: Q01DX001 (ip), vehicle: suspension in saline) was 93 % of control.

For `COC1N(C2CC(O)C(CO)O2)C(=O)NC(=O)C1(F)Br` (configuration not stated), the T/C [1] was 74 % of control, the T/C [2] was 54 % of control and the T/C (endpoint: median tumor weight (est.), dose: 6.25 mg/kg/injection, schedule: Q07DX005 (ip), vehicle: suspension in saline) was 67 % of control. The T/C [3] was 28 % of control, the T/C [6] was 113 % of control and the T/C [4] was 46 % of control. The T/C [7] was 66 % of control, the T/C [5] was 28 % of control and the T/C [8] was 45 % of control. The T/C [9] was 5 % of control, the T/C [10] was 45 % of control and the T/C (endpoint: median tumor weight (est.), dose: 200.0 mg/kg/injection, schedule: Q07DX005 (ip), vehicle: suspension in saline) was 57 % of control.

With `COc1ccc(CC2C(=O)NC(C)C(=O)N(C)C3Cc4ccc(cc4)Oc4cc(ccc4O)CC(C(=O)NC(C)C(=O)NC(C)C(=O)N2C)N(C)C3=O)cc1` (configuration not stated) the T/C (endpoint: median tumor weight change, dose: 1.25 mg/kg/injection, schedule: Q01DX001 (ip), vehicle: saline with Tween-80) was 55 % of control, the T/C (endpoint: median tumor weight change, dose: 2.5 mg/kg/injection, schedule: Q01DX001 (ip), vehicle: saline with Tween-80) was 111 % of control and the T/C (endpoint: median tumor weight change, dose: 5.0 mg/kg/injection, schedule: Q01DX001 (ip), vehicle: saline with Tween-80) was 115 % of control. The T/C (endpoint: median tumor weight change, dose: 10.0 mg/kg/injection, schedule: Q01DX001 (ip), vehicle: saline with Tween-80) was 56 % of control and the T/C (endpoint: median tumor weight change, dose: 20.0 mg/kg/injection, schedule: Q01DX001 (ip), vehicle: saline with Tween-80) was 81 % of control.

For `CC1C=NNC1=O` (configuration not stated), the T/C [11] was 20 % of control, the T/C [12] was 187 % of control and the T/C [13] was 234 % of control. For the same molecule, the T/C [14] was 182 % of control and the T/C (endpoint: median tumor weight (est.), dose: 400.0 mg/kg/injection, schedule: Q07DX005 (ip), vehicle: Klucel (hydroxypropylcellulose) (HPC)) was 23 % of control.

In the case of `C=C(C)C12CC(C)C34OC(CCCCCCCCCCC)(OC1C3C1OC1(CO)C(O)C1(O)C(=O)C(C)=CC14C)O2` (configuration not stated), the T/C (endpoint: median tumor weight (est.), dose: 100.0 micrograms/kg/injection, schedule: Q07DX005 (ip), vehicle: saline + alcohol) is reported as 58 % of control, the T/C (endpoint: median tumor weight (est.), dose: 200.0 micrograms/kg/injection, schedule: Q07DX005 (ip), vehicle: saline + alcohol) is reported as 71 % of control and the T/C (endpoint: median tumor weight (est.), dose: 400.0 micrograms/kg/injection, schedule: Q07DX005 (ip), vehicle: saline + alcohol) is reported as 49 % of control.

With `CCC(=O)O[C@H]1CC[C@H]2[C@@H]3CCC4=CC(=O)CC[C@]4(C)[C@H]3CC[C@]12C` the T/C (endpoint: median tumor weight (est.), dose: 160.0 mg/kg/injection, schedule: Q07DX005 (ip), vehicle: Klucel (hydroxypropylcellulose) (HPC)) was 99 % of control and the T/C (endpoint: median tumor weight (est.), dose: 640.0 mg/kg/injection, schedule: Q07DX005 (ip), vehicle: Klucel (hydroxypropylcellulose) (HPC)) was 48 % of control.

`O=C1N[C@H]2[C@H](CS[C@H]2CCCCC(=O)N(CCP(c2ccccc2)c2ccccc2)CCP(c2ccccc2)c2ccccc2)N1` was tested, and the T/C [15] was 97 % of control, the T/C [16] was 70 % of control and the T/C [17] was 85 % of control. For the same molecule, the T/C (endpoint: median tumor weight change, dose: 1000.0 mg/kg/injection, schedule: Q01DX001 (ip), vehicle: Klucel (hydroxypropylcellulose) (HPC)) was 55 % of control and the T/C (endpoint: median tumor weight change, dose: 2000.0 mg/kg/injection, schedule: Q01DX001 (ip), vehicle: Klucel (hydroxypropylcellulose) (HPC)) was 56 % of control.

For `Nc1nc2c(ncn2C2OC(CO)C(O)C2O)c(=O)[nH]1.Nc1nc2c(ncn2C2OC(CO)C(O)C2O)c(=O)[nH]1.[NH2-].[NH2-].[Pt+2]` (configuration not stated), the T/C (endpoint: median tumor weight (est.), dose: 12.5 mg/kg/injection, schedule: Q07DX005 (ip), vehicle: water) was 52 % of control, the T/C (endpoint: median tumor weight (est.), dose: 25.0 mg/kg/injection, schedule: Q07DX005 (ip), vehicle: water) was 61 % of control and the T/C (endpoint: median tumor weight (est.), dose: 50.0 mg/kg/injection, schedule: Q07DX005 (ip), vehicle: water) was 34 % of control. For the same molecule, the T/C (endpoint: median tumor weight (est.), dose: 100.0 mg/kg/injection, schedule: Q07DX005 (ip), vehicle: water) was 51 % of control and the T/C (endpoint: median tumor weight (est.), dose: 200.0 mg/kg/injection, schedule: Q07DX005 (ip), vehicle: water) was 40 % of control.

With `CC(C)(C)c1ccc(CN2CCN(C(c3ccccc3)c3ccc(Cl)cc3)CC2)cc1` (configuration not stated) the T/C (endpoint: median tumor weight change, dose: 8.0 mg/kg/injection, schedule: Q01DX001 (ip), vehicle: Klucel (hydroxypropylcellulose) (HPC)) was 98 % of control, the T/C (endpoint: median tumor weight change, dose: 16.0 mg/kg/injection, schedule: Q01DX001 (ip), vehicle: Klucel (hydroxypropylcellulose) (HPC)) was 96 % of control and the T/C (endpoint: median tumor weight change, dose: 32.0 mg/kg/injection, schedule: Q01DX001 (ip), vehicle: Klucel (hydroxypropylcellulose) (HPC)) was 101 % of control. The T/C (endpoint: median tumor weight change, dose: 64.0 mg/kg/injection, schedule: Q01DX001 (ip), vehicle: Klucel (hydroxypropylcellulose) (HPC)) was 108 % of control, the T/C (endpoint: median tumor weight change, dose: 128.0 mg/kg/injection, schedule: Q01DX001 (ip), vehicle: Klucel (hydroxypropylcellulose) (HPC)) was 55 % of control and the T/C (endpoint: median tumor weight change, dose: 256.0 mg/kg/injection, schedule: Q01DX001 (ip), vehicle: Klucel (hydroxypropylcellulose) (HPC)) was 84 % of control.

`O=c1[nH]c2c(ccc3cnccc32)c2c1CCC2` was tested, and the T/C [2] was 119 % of control, the T/C [6] was 80 % of control and the T/C [4] was 162 % of control. For the same molecule, the T/C [7] was 80 % of control, the T/C [5] was 114 % of control and the T/C [8] was 59 % of control. The T/C [9] was 164 % of control and the T/C [10] was 77 % of control.

With `CCN(CC)c1ccc2cc(-c3nc4ccccc4n3C)c(=O)oc2c1` the T/C [11] was 62 % of control and 84 % of control, the T/C [12] was 79 % of control and the T/C [13] was 35 % of control. The T/C [14] was 24 % of control, the T/C [15] was 92 % of control and the T/C [16] was 80 % of control. For the same molecule, the T/C [17] was 37 % of control.

With `CCCCc1ccc(-n2c(C)c(COC(=O)NC)c(COC(=O)NC)c2C)cc1` the T/C (endpoint: median tumor weight (est.), dose: 6.25 mg/kg/injection, schedule: Q07DX005 (ip), vehicle: Klucel (hydroxypropylcellulose) (HPC)) was 118 % of control, the T/C [18] was 63 % of control and the T/C [11] was 111 % of control. For the same molecule, the T/C [12] was 56 % of control and the T/C [13] was 40 % of control.

`CSc1ncnc2c1ncn2C1OC(CO)C(O)C1O` (configuration not stated) was tested, and the T/C (endpoint: median tumor weight change, dose: 16.0 mg/kg/injection, schedule: Q01DX001 (ip), vehicle: saline + alcohol) was 67 % of control, the T/C (endpoint: median tumor weight change, dose: 31.0 mg/kg/injection, schedule: Q01DX001 (ip), vehicle: saline + alcohol) was 82 % of control and the T/C (endpoint: median tumor weight change, dose: 62.0 mg/kg/injection, schedule: Q01DX001 (ip), vehicle: saline + alcohol) was 52 % of control. For the same molecule, the T/C (endpoint: median tumor weight change, dose: 62.5 mg/kg/injection, schedule: Q01DX001 (ip), vehicle: saline + alcohol) was 79 % of control, the T/C (endpoint: median tumor weight change, dose: 125.0 mg/kg/injection, schedule: Q01DX001 (ip), vehicle: saline + alcohol) was 52 % of control and 70 % of control and the T/C (endpoint: median tumor weight change, dose: 250.0 mg/kg/injection, schedule: Q01DX001 (ip), vehicle: saline + alcohol) was 10 % of control and 12 % of control.

For `CCCCCC[C@H]([C@H](C)O)n1cnc2c(N)ncnc21`, the T/C [18] was 60 % of control, the T/C [11] was 305 % of control and the T/C [12] was 206 % of control and 84 % of control. For the same molecule, the T/C [13] was 106 % of control, the T/C (endpoint: median tumor weight change, dose: 50.0 mg/kg/injection, schedule: Q01DX001 (ip), vehicle: Klucel (hydroxypropylcellulose) (HPC)) was 68 % of control and the T/C (endpoint: median tumor weight change, dose: 100.0 mg/kg/injection, schedule: Q01DX001 (ip), vehicle: Klucel (hydroxypropylcellulose) (HPC)) was 106 % of control. For the same molecule, the T/C (endpoint: median tumor weight change, dose: 200.0 mg/kg/injection, schedule: Q01DX001 (ip), vehicle: Klucel (hydroxypropylcellulose) (HPC)) was 79 % of control.
